In the NIST ThermoML archive (doi:10.1016/j.jct.2018.11.020):
± gives the expanded uncertainty stated by the source.

What was measured:
[1] = 101.33 kPa, Liquid; for viscosity: Concentric cylinders viscometry; for mass density: Vibrating tube method
[2] = refractive index (Na D-line) (dimensionless); details: 101.33 kPa, Liquid, Standard Abbe refractometry

Work on `Cc1ccccc1C` [1,2-dimethylbenzene] yielded a viscosity ([1]; 288.15 K) of 0.869 ± 0.019 mPa·s, a mass density ([1]; 288.15 K) of 883.91 ± 1 kg/m3 and a viscosity ([1]; 293.15 K) of 0.8175 ± 0.018 mPa·s. The mass density ([1]; 293.15 K) was 879.72 ± 1 kg/m3, the viscosity ([1]; 298.15 K) was 0.7661 ± 0.017 mPa·s and the mass density ([1]; 298.15 K) was 875.51 ± 1 kg/m3. It also gave a viscosity ([1]; 303.15 K) of 0.722 ± 0.016 mPa·s, a mass density ([1]; 303.15 K) of 871.3 ± 1 kg/m3 and a viscosity ([1]; 308.15 K) of 0.6809 ± 0.015 mPa·s. It also gave a mass density ([1]; 308.15 K) of 867.07 ± 1 kg/m3, a viscosity ([1]; 313.15 K) of 0.6437 ± 0.014 mPa·s and a mass density ([1]; 313.15 K) of 862.83 ± 1 kg/m3. The viscosity ([1]; 318.15 K) was 0.608 ± 0.014 mPa·s, the mass density ([1]; 318.15 K) was 858.57 ± 1 kg/m3 and the viscosity ([1]; 323.15 K) was 0.5757 ± 0.013 mPa·s. The mass density ([1]; 323.15 K) was 854.3 ± 1 kg/m3, the viscosity ([1]; 328.15 K) was 0.5458 ± 0.012 mPa·s and the mass density ([1]; 328.15 K) was 850.01 ± 1 kg/m3. The viscosity ([1]; 333.15 K) was 0.5221 ± 0.012 mPa·s, the mass density ([1]; 333.15 K) was 845.71 ± 1 kg/m3 and the refractive index ([2]; 288.15 K) was 1.50706 ± 0.0004. It also gave a refractive index ([2]; 293.15 K) of 1.5044 ± 0.0004, a refractive index ([2]; 298.15 K) of 1.50173 ± 0.0004 and a refractive index ([2]; 303.15 K) of 1.49906 ± 0.0004. For the same compound, the refractive index ([2]; 308.15 K) was 1.49644 ± 0.0004, the refractive index ([2]; 313.15 K) was 1.49383 ± 0.0004 and the refractive index ([2]; 318.15 K) was 1.49124 ± 0.0004. The refractive index ([2]; 323.15 K) was 1.48869 ± 0.0004, the refractive index ([2]; 328.15 K) was 1.48604 ± 0.0004 and the refractive index ([2]; 333.15 K) was 1.48345 ± 0.0004.

`Cc1ccc(C)cc1` [1,4-dimethylbenzene] showed a viscosity ([1]; 288.15 K) of 0.6862 ± 0.015 mPa·s, a mass density ([1]; 288.15 K) of 865.31 ± 1 kg/m3 and a viscosity ([1]; 293.15 K) of 0.6515 ± 0.015 mPa·s. For the same compound, the mass density ([1]; 293.15 K) was 860.97 ± 1 kg/m3, the viscosity ([1]; 298.15 K) was 0.6168 ± 0.014 mPa·s and the mass density ([1]; 298.15 K) was 856.63 ± 1 kg/m3. It also gave a viscosity ([1]; 303.15 K) of 0.5848 ± 0.013 mPa·s, a mass density ([1]; 303.15 K) of 852.27 ± 1 kg/m3 and a viscosity ([1]; 308.15 K) of 0.5548 ± 0.013 mPa·s. The mass density ([1]; 308.15 K) was 847.91 ± 1 kg/m3, the viscosity ([1]; 313.15 K) was 0.5247 ± 0.012 mPa·s and the mass density ([1]; 313.15 K) was 843.53 ± 1 kg/m3. The viscosity ([1]; 318.15 K) was 0.5001 ± 0.011 mPa·s, the mass density ([1]; 318.15 K) was 839.14 ± 1 kg/m3 and the viscosity ([1]; 323.15 K) was 0.4753 ± 0.011 mPa·s. For the same compound, the mass density ([1]; 323.15 K) was 834.74 ± 1 kg/m3, the viscosity ([1]; 328.15 K) was 0.4521 ± 0.01 mPa·s and the mass density ([1]; 328.15 K) was 830.32 ± 1 kg/m3. For the same compound, the viscosity ([1]; 333.15 K) was 0.4342 ± 0.01 mPa·s, the mass density ([1]; 333.15 K) was 825.88 ± 1 kg/m3 and the refractive index ([2]; 288.15 K) was 1.4977 ± 0.0004. The refractive index ([2]; 293.15 K) was 1.49493 ± 0.0004, the refractive index ([2]; 298.15 K) was 1.49221 ± 0.0004 and the refractive index ([2]; 303.15 K) was 1.48939 ± 0.0004. For the same compound, the refractive index ([2]; 308.15 K) was 1.48658 ± 0.0004, the refractive index ([2]; 313.15 K) was 1.48391 ± 0.0004 and the refractive index ([2]; 318.15 K) was 1.48126 ± 0.0004. For the same compound, the refractive index ([2]; 323.15 K) was 1.47853 ± 0.0004, the refractive index ([2]; 328.15 K) was 1.47608 ± 0.0004 and the refractive index ([2]; 333.15 K) was 1.47328 ± 0.0004.

With `Cc1cccc(C)c1` [1,3-dimethylbenzene] the viscosity ([1]; 288.15 K) was 0.6601 ± 0.015 mPa·s, the mass density ([1]; 288.15 K) was 868.56 ± 1 kg/m3 and the viscosity ([1]; 293.15 K) was 0.6322 ± 0.014 mPa·s. It also gave a mass density ([1]; 293.15 K) of 864.27 ± 1 kg/m3, a viscosity ([1]; 298.15 K) of 0.5969 ± 0.013 mPa·s and a mass density ([1]; 298.15 K) of 859.98 ± 1 kg/m3. The viscosity ([1]; 303.15 K) was 0.5674 ± 0.013 mPa·s, the mass density ([1]; 303.15 K) was 855.68 ± 1 kg/m3 and the viscosity ([1]; 308.15 K) was 0.5396 ± 0.012 mPa·s. It also gave a mass density ([1]; 308.15 K) of 851.36 ± 1 kg/m3, a viscosity ([1]; 313.15 K) of 0.5112 ± 0.012 mPa·s and a mass density ([1]; 313.15 K) of 847.03 ± 1 kg/m3. The viscosity ([1]; 318.15 K) was 0.4888 ± 0.011 mPa·s, the mass density ([1]; 318.15 K) was 842.69 ± 1 kg/m3 and the viscosity ([1]; 323.15 K) was 0.4657 ± 0.011 mPa·s. For the same compound, the mass density ([1]; 323.15 K) was 838.33 ± 1 kg/m3, the viscosity ([1]; 328.15 K) was 0.4439 ± 0.01 mPa·s and the mass density ([1]; 328.15 K) was 833.95 ± 1 kg/m3. The viscosity ([1]; 333.15 K) was 0.4273 ± 0.01 mPa·s, the mass density ([1]; 333.15 K) was 829.56 ± 1 kg/m3 and the refractive index ([2]; 288.15 K) was 1.49868 ± 0.0004. The refractive index ([2]; 293.15 K) was 1.49604 ± 0.0004, the refractive index ([2]; 298.15 K) was 1.49339 ± 0.0004 and the refractive index ([2]; 303.15 K) was 1.49074 ± 0.0004. The refractive index ([2]; 308.15 K) was 1.4881 ± 0.0004, the refractive index ([2]; 313.15 K) was 1.48545 ± 0.0004 and the refractive index ([2]; 318.15 K) was 1.4828 ± 0.0004. It also gave a refractive index ([2]; 323.15 K) of 1.48017 ± 0.0004, a refractive index ([2]; 328.15 K) of 1.47757 ± 0.0004 and a refractive index ([2]; 333.15 K) of 1.47489 ± 0.0004.

Work on `Cc1ccccc1` [toluene] yielded a viscosity ([1]; 288.15 K) of 0.6284 ± 0.014 mPa·s, a mass density ([1]; 288.15 K) of 871.5 ± 1 kg/m3 and a viscosity ([1]; 293.15 K) of 0.5926 ± 0.013 mPa·s. For the same compound, the mass density ([1]; 293.15 K) was 866.84 ± 1 kg/m3, the viscosity ([1]; 298.15 K) was 0.5698 ± 0.013 mPa·s and the mass density ([1]; 298.15 K) was 862.18 ± 1 kg/m3. For the same compound, the viscosity ([1]; 303.15 K) was 0.541 ± 0.012 mPa·s, the mass density ([1]; 303.15 K) was 857.51 ± 1 kg/m3 and the viscosity ([1]; 308.15 K) was 0.514 ± 0.011 mPa·s. For the same compound, the mass density ([1]; 308.15 K) was 852.83 ± 1 kg/m3, the viscosity ([1]; 313.15 K) was 0.4854 ± 0.011 mPa·s and the mass density ([1]; 313.15 K) was 848.15 ± 1 kg/m3. For the same compound, the viscosity ([1]; 318.15 K) was 0.4646 ± 0.01 mPa·s, the mass density ([1]; 318.15 K) was 843.44 ± 1 kg/m3 and the viscosity ([1]; 323.15 K) was 0.4421 ± 0.01 mPa·s. For the same compound, the mass density ([1]; 323.15 K) was 838.73 ± 1 kg/m3, the viscosity ([1]; 328.15 K) was 0.4209 ± 0.0097 mPa·s and the mass density ([1]; 328.15 K) was 834 ± 1 kg/m3. For the same compound, the viscosity ([1]; 333.15 K) was 0.4035 ± 0.0094 mPa·s, the mass density ([1]; 333.15 K) was 829.25 ± 1 kg/m3 and the refractive index ([2]; 288.15 K) was 1.49921 ± 0.00036. For the same compound, the refractive index ([2]; 293.15 K) was 1.49631 ± 0.00036, the refractive index ([2]; 298.15 K) was 1.49338 ± 0.00036 and the refractive index ([2]; 303.15 K) was 1.49042 ± 0.00036. It also gave a refractive index ([2]; 308.15 K) of 1.48751 ± 0.00036, a refractive index ([2]; 313.15 K) of 1.48461 ± 0.00036 and a refractive index ([2]; 318.15 K) of 1.48171 ± 0.00036. The refractive index ([2]; 323.15 K) was 1.47889 ± 0.00036, the refractive index ([2]; 328.15 K) was 1.47596 ± 0.00036 and the refractive index ([2]; 333.15 K) was 1.47305 ± 0.00036.
